Reference: PubChem BioAssay AID330 (DTP/NCI, 2004)
Where “and” joins values, the source holds several entries; their conditions need not be identical. Equal entries are not always repeated. Toxic doses and inconclusive results are not listed. The calls were made as follows: active = survival T/C of 150% or more; inactive = T/C below 125% in these data.

System: P388 leukemia ip, CD2F1 mice, survival T/C
Experiment: NCI In Vivo Anticancer Drug Screen. Data for tumor model P388 Leukemia (intraperitoneal) in CD2F1 (CDF1) mice
Details: endpoint: median survival time, higher = longer survival
Procedure, shortened: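 Mice carrying the transplanted tumor received test compound or vehicle. Survival was recorded in each group, and the value is the treated-group measurement divided by that of the vehicle-treated control group.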

[1] = dose: 50.0 mg/kg/injection, schedule: Q01DX005 (ip), vehicle: saline with Tween-80
[2] = dose: 100.0 mg/kg/injection, schedule: Q01DX005 (ip), vehicle: saline with Tween-80
[3] = dose: 200.0 mg/kg/injection, schedule: Q01DX005 (ip), vehicle: saline with Tween-80
[4] = dose: 60.0 mg/kg/injection, schedule: Q01DX005 (ip), vehicle: saline with Tween-80
[5] = dose: 120.0 mg/kg/injection, schedule: Q01DX005 (ip), vehicle: saline with Tween-80
[6] = dose: 240.0 mg/kg/injection, schedule: Q01DX005 (ip), vehicle: saline with Tween-80
[7] = dose: 50.0 mg/kg/injection, schedule: Q01DX005 (ip), vehicle: Klucel (hydroxypropylcellulose) (HPC)
[8] = dose: 100.0 mg/kg/injection, schedule: Q01DX005 (ip), vehicle: Klucel (hydroxypropylcellulose) (HPC)
[9] = dose: 50.0 mg/kg/injection, schedule: Q01DX009 (ip), vehicle: saline with Tween-80
[10] = dose: 100.0 mg/kg/injection, schedule: Q01DX009 (ip), vehicle: saline with Tween-80
[11] = dose: 100.0 mg/kg/injection, schedule: Q01DX009 (ip), vehicle: saline sonified
[12] = dose: 200.0 mg/kg/injection, schedule: Q01DX009 (ip), vehicle: saline sonified
[13] = dose: 400.0 mg/kg/injection, schedule: Q01DX009 (ip), vehicle: saline sonified
[14] = dose: 7.5 mg/kg/injection, schedule: Q01DX005 (ip), vehicle: Klucel (hydroxypropylcellulose) (HPC)
[15] = dose: 15.0 mg/kg/injection, schedule: Q01DX005 (ip), vehicle: Klucel (hydroxypropylcellulose) (HPC)
[16] = dose: 30.0 mg/kg/injection, schedule: Q01DX005 (ip), vehicle: Klucel (hydroxypropylcellulose) (HPC)
[17] = dose: 12.5 mg/kg/injection, schedule: Q01DX009 (ip), vehicle: saline with Tween-80
[18] = dose: 25.0 mg/kg/injection, schedule: Q01DX009 (ip), vehicle: saline with Tween-80
[19] = dose: 12.5 mg/kg/injection, schedule: Q01DX009 (ip), vehicle: distilled water + Tween-80
[20] = dose: 25.0 mg/kg/injection, schedule: Q01DX009 (ip), vehicle: distilled water + Tween-80
[21] = dose: 50.0 mg/kg/injection, schedule: Q01DX009 (ip), vehicle: distilled water + Tween-80
[22] = dose: 100.0 mg/kg/injection, schedule: Q01DX009 (ip), vehicle: distilled water + Tween-80
[23] = dose: 200.0 mg/kg/injection, schedule: Q01DX009 (ip), vehicle: distilled water + Tween-80

Measured: T/C

FC(F)(F)c1cc(NC(=S)SCc2ccc(Cl)cc2)ccc1Cl
inactive: dose: 50.0 mg/kg/injection, schedule: Q01DX009 (ip), vehicle: suspension in saline 103 % of control | dose: 100.0 mg/kg/injection, schedule: Q01DX009 (ip), vehicle: suspension in saline 90 % of control | dose: 200.0 mg/kg/injection, schedule: Q01DX009 (ip), vehicle: suspension in saline 93 % of control

COc1cc(NCC(C)(O)CN(CC(C)C)CC(C)C)c2ncccc2c1 (stereo unspecified)
inactive: dose: 12.5 mg/kg/injection, schedule: Q01DX005 (ip), vehicle: saline 106 % of control | dose: 25.0 mg/kg/injection, schedule: Q01DX005 (ip), vehicle: saline 106 % of control | dose: 50.0 mg/kg/injection, schedule: Q01DX005 (ip), vehicle: saline 112 % of control and 97 % of control

CC(=O)OC1C(C)OC(OC(=O)C2CCC3C(C2)OC2(CC(OC(=O)/C=C/c4ccccc4)C(C)CO2)C32CO2)C(OC2OC(C)C(O)C(O)C2O)C1O (stereo unspecified)
inactive: dose: 2.5 mg/kg/injection, schedule: Q01DX005 (ip), vehicle: saline + alcohol 96 % of control | dose: 5.0 mg/kg/injection, schedule: Q01DX005 (ip), vehicle: saline + alcohol 102 % of control and 107 % of control | dose: 10.0 mg/kg/injection, schedule: Q01DX005 (ip), vehicle: saline + alcohol 112 % of control

COC(=O)c1nn(C)c(=O)[nH]c1=O
inactive: [1] 103 % of control | [2] 98 % of control | [3] 100 % of control

CCN(CC)C(C)=S
inactive: [4] 103 % of control | [5] 110 % of control | [6] 104 % of control

CCCCN=C(N)N/N=C/c1c2ccccc2c(C)c2ccccc12
inactive: dose: 12.5 mg/kg/injection, schedule: Q04DX002 (ip), vehicle: saline with Tween-80 104 % of control | dose: 25.0 mg/kg/injection, schedule: Q04DX002 (ip), vehicle: saline with Tween-80 104 % of control | dose: 50.0 mg/kg/injection, schedule: Q04DX002 (ip), vehicle: saline with Tween-80 104 % of control

Cc1ccc(C23c4ccccc4CCN2C(=O)C3N)cc1 (stereo unspecified)
inactive: [7] 99 % of control | [8] 106 % of control | dose: 200.0 mg/kg/injection, schedule: Q01DX005 (ip), vehicle: Klucel (hydroxypropylcellulose) (HPC) 93 % of control

C[N+](C)(Cn1nc(Cl)c2cc([N+](=O)[O-])ccc21)Cn1nc(Cl)c2cc([N+](=O)[O-])ccc21
inactive: dose: 50.0 mg/kg/injection, schedule: Q04DX003 (ip), vehicle: saline with Tween-80 93 % of control | dose: 200.0 mg/kg/injection, schedule: Q04DX003 (ip), vehicle: saline with Tween-80 88 % of control

Clc1ccc(N=C(c2ccncc2)c2cc(Cl)ccc2Cl)cc1
inactive: [9] 109 % of control | [10] 92 % of control

C1COC2(CCC3(CC2)OCCO3)O1
inactive: dose: 25.0 mg/kg/injection, schedule: Q04DX003 (ip), vehicle: Klucel (hydroxypropylcellulose) (HPC) 100 % of control | dose: 50.0 mg/kg/injection, schedule: Q04DX003 (ip), vehicle: Klucel (hydroxypropylcellulose) (HPC) 103 % of control | [11] 111 % of control | dose: 100.0 mg/kg/injection, schedule: Q04DX003 (ip), vehicle: Klucel (hydroxypropylcellulose) (HPC) 101 % of control | [12] 100 % of control | dose: 200.0 mg/kg/injection, schedule: Q04DX003 (ip), vehicle: Klucel (hydroxypropylcellulose) (HPC) 100 % of control | [13] 100 % of control | dose: 400.0 mg/kg/injection, schedule: Q04DX003 (ip), vehicle: Klucel (hydroxypropylcellulose) (HPC) 99 % of control

c1cc[c]([Sn]([S]C23CC4CC(CC(C4)C2)C3)([c]2ccccc2)[c]2ccccc2)cc1
inactive: dose: 100.0 mg/kg/injection, schedule: Q04DX003 (ip), vehicle: suspension in saline 94 % of control | dose: 200.0 mg/kg/injection, schedule: Q04DX003 (ip), vehicle: suspension in saline 98 % of control | dose: 400.0 mg/kg/injection, schedule: Q04DX003 (ip), vehicle: suspension in saline 93 % of control

Cc1ccc(S(=O)(=O)N/N=C/c2c(Cl)nc3sccn23)cc1
inactive: dose: 100.0 mg/kg/injection, schedule: Q01DX001 (ip), vehicle: Klucel (hydroxypropylcellulose) (HPC) 111 % of control | dose: 200.0 mg/kg/injection, schedule: Q01DX001 (ip), vehicle: Klucel (hydroxypropylcellulose) (HPC) 108 % of control | dose: 400.0 mg/kg/injection, schedule: Q01DX001 (ip), vehicle: Klucel (hydroxypropylcellulose) (HPC) 111 % of control

COC(=O)/C=C(/Sc1nc(Cl)c(Cl)nc1N)C(=O)OC (tested in a mixture with another compound)
inactive: [14] 103 % of control | [15] 113 % of control | [16] 113 % of control

CCC1S(=O)(=O)OCCOS1(=O)=O
inactive: [14] 106 % of control | [15] 106 % of control and 107 % of control and 116 % of control | [16] 109 % of control and 112 % of control and 120 % of control

O=C(O)c1ccc(=O)oc1
inactive: [17] 98 % of control | [18] 94 % of control | [9] 116 % of control | [10] 116 % of control

COC(=O)C1C(=O)C(NC(=O)CCCCl)C(c2ccccc2)C(C(=O)OC)C1=O (stereo unspecified)
inactive: dose: 12.5 mg/kg/injection, schedule: Q01DX005 (ip), vehicle: saline with Tween-80 103 % of control | dose: 25.0 mg/kg/injection, schedule: Q01DX005 (ip), vehicle: saline with Tween-80 106 % of control | [1] 99 % of control | [4] 101 % of control | [2] 102 % of control | [5] 94 % of control | [3] 103 % of control | [6] 97 % of control

O=C1c2ccccc2C(O)(C(=O)O)C1(O)CC=C(Cl)Cl (stereo unspecified)
inactive: [19] 103 % of control | [20] 99 % of control | [21] 91 % of control | [22] 95 % of control | [23] 91 % of control

COc1ccc(NC(=O)/N=C2\CN(C(=O)c3c(F)cccc3F)C(=O)N2c2ccc(OC)cc2)cc1
inactive: [4] 87 % of control | [5] 89 % of control | [6] 103 % of control

Cc1ccc(OCC(O)CN2CCN(c3ccc(Cl)cc3)CC2)cc1 (stereo unspecified)
inactive: [11] 100 % of control | [12] 95 % of control | [13] 90 % of control

CCCCCCCN(CCCCCCC)CC(O)c1c(OC)c2ccccc2c2ccccc12 (stereo unspecified)
inactive: [18] 89 % of control | [9] 88 % of control

CCC(=O)NC1=CCC(C(C)(C)C)CC1 (stereo unspecified)
inactive: [1] 102 % of control | [2] 102 % of control

COc1nncc(-c2cnnc(OC)n2)n1
inactive: dose: 3.13 mg/kg/injection, schedule: Q01DX009 (ip), vehicle: saline with Tween-80 105 % of control | dose: 6.25 mg/kg/injection, schedule: Q01DX009 (ip), vehicle: saline with Tween-80 100 % of control | [17] 102 % of control

OCN(CO)c1nc(CCC(Br)(Br)Br)nc(N(CO)CO)n1
inactive: [19] 104 % of control | [20] 98 % of control | [21] 98 % of control | [22] 89 % of control | [23] 98 % of control

CCn1c2ccccc2c2cc(NC(=S)NC(=O)c3ccccc3)ccc21
inactive: [1] 87 % of control | [2] 86 % of control | [3] 87 % of control

COc1ccc(C2CC3CCC(C2O)N3C)cc1 (stereo unspecified)
inactive: [7] 103 % of control | [8] 96 % of control

C=C1C(=O)OC2/C=C(\C)CC/C=C(\C=O)C(OC(=O)C(C)C)C(OC(=O)C(C)(C)O)C12 (stereo unspecified)
inactive: dose: 5.0 mg/kg/injection, schedule: Q01DX009 (ip), vehicle: other 116 % of control | dose: 10.0 mg/kg/injection, schedule: Q01DX009 (ip), vehicle: other 112 % of control | dose: 20.0 mg/kg/injection, schedule: Q01DX009 (ip), vehicle: other 112 % of control

O=C(NCC1OC(n2cnc3c(=O)[nH]cnc32)C(O)C1O)c1ccc(S(=O)(=O)F)cc1 (stereo unspecified)
inactive: dose: 50.0 mg/kg/injection, schedule: Q01DX001 (ip), vehicle: saline with Tween-80 99 % of control | dose: 100.0 mg/kg/injection, schedule: Q01DX001 (ip), vehicle: saline with Tween-80 96 % of control | dose: 200.0 mg/kg/injection, schedule: Q01DX001 (ip), vehicle: saline with Tween-80 108 % of control
